Measurements reported in patent publication US12050220B2, “Cell labeling agent and cell labeling kit” (University of Miyazaki, priority 2018, dated 2024).

Columns and labels:
HeLa cells = assay: Fluorescence imaging of cells (metabolic labeling, FAM-tetrazine staining, confocal microscopy); type: cell-based
Experimental: BCN-ManNAc was added to the medium containing 1×10^5 HeLa cells and cultured for 72 hours. The medium used was DMEM (Dulbecco's Modified Eagle's Medium) containing 10% FBS (fetal bovine serum). The final concentrations of BCN-ManNAc added to the medium were 0, 2.5, 5, 10, 20, and 25 μM. After incubation, the medium was removed and the cells were washed three times with PBS. 3.7% paraformaldehyde was added and the cells were fixed for 20 min at room temperature. A final concentration of 1 μM FAM-tetrazine was added to the plate containing the fixed cells, and the cells were incubated for 20 min at room temperature. Fluorescence measurement was performed using a confocal microscopy (Leica TCS SP8, Leica Microsystems).

[1] = Confirmation of the reactivity of BCN-ManNAc in vitro (click reaction with FAM-tetrazine, fluorescence spectra); details: BCN-ManNAc 200 μM, FAM-tetrazine 1 μM, PBS; time-varying measurement up to 4000 s
Experimental: 2.0 mg of BCN-ManNAc was dissolved in 190 μL of DMSO and 20 mM of BCN-ManNAc solution was prepared. 1.0 mg of FAM-tetrazine was dissolved in 180 μL of DMSO and […] of FAM-tetrazine solution was prepared. 89 μL of phosphate-buffered saline (PBS) was prepared in a microtube, to which 1 μL of BCN-ManNAc solution and 10 μL of FAM-tetrazine solution were added, and the mixture was stirred well in a vortex mixer. The final concentrations of BCN-ManNAc and FAM-tetrazine in the mixture are 200 μM and 1 μM, respectively.
100 μL of the mixture was reacted at 37° C. for 1.5 hours. As a control, 100 μL of the sample of BCN-ManNAc 200 μM only was prepared. The fluorescence spectra of the mixture and control were measured using a spectrophotometer (JASCO FP-8200) (λex=492 nm, λem=517 nm). To evaluate the time dependence of the reaction of BCN-ManNAc and FAM-tetrazine, the fluorescence spectra of 100 μL of the mixture were measured up to 4000 s in the time-varying measurement mode.

For “acetylated BCN-modified mannosamine [BCN-ManNAc]”, the “fluorescence of FAM in cells” value (HeLa cells; HeLa cells cultured 72 hours with 0, 2.5, 5, 10, 20, 25 μM, fixed, 1 μM FAM-tetrazine 20 min) was “increased in a concentration-dependent manner”, the “fluorescence images of cells exposed to FAM-tetrazine (+)” value (HeLa cells; HeLa cells cultured in medium containing 25 μM, with FAM-tetrazine (+) vs without (−)) was “observed by fluorescence” and the “time at which fluorescence intensity almost reached its maximum” value [1] was “about 1800 s”.
